Assay results: paper PMC9918900, “New Succinimide–Thiazolidinedione Hybrids as Multitarget Antidiabetic Agents: Design, Synthesis, Bioevaluation, and Molecular Modelling Studies” (Molecules, 2023)

Tested on: streptozotocin-induced diabetic rats
Assay: serum insulin level estimation
Assay type: in vivo, Wistar rats
Parameters: unit not given here
Settings: for Insulin Level (Mean ±SEM), Final Reading: 28th day
Protocol: Non-insulin-dependent diabetes mellitus was induced in fasted rats weighing 150–230 gm using a single dose of streptozotocin (STZ) at a dose of 60 mg/kg intraperitoneally after 15 min of the administration of nicotinamide at a 120 mg/kg dose i.p. Nicotinamide was prepared in normal saline while in citrate buffer (pH 4.5), STZ was prepared. After the induction of diabetes, the increase in the plasma glucose level was measured at 72 h and then measured on the 7th day to confirm hyperglycemia. For the diagnosis of diabetes, the threshold value of the fasting plasma glucose level was considered to be more than 126 mg/dl. For the study, only the animals with permanent NIIDM were utilized.
The animals were classified into 5 groups with 6 animals in each group (n = 6). Group I comprised of normal control rats which were daily administered drinking water only; group II served as diabetic control rats (disease group); group III served as the positive control and were administered 0.5 mg/kg of the standard drug glibenclamide; and group IV and V served as the test group rats and were administered the test compound 10d at 10 mg/kg and 20 mg/kg, respectively, for twenty-eight days. The fasting glucose concentration was measured on the 0, 7th, 14th, and 28th day of the administration of the extract. During the experimental tenure, the weights of the rats were determined daily and the mean change was recorded.
After the 28th day of treatment with the test compound 10d, the blood samples were taken for the determination of the insulin levels, which were measured with the help of GLAZYME INSULIN-EIA TEST.

CC(C)(C=C1SC(=O)N(C(=O)CN2CCOCC2)C1=O)C1CC(=O)N(Cc2ccccc2)C1=O (stereo not shown) [10d]
Insulin Level (Mean ±SEM), Initial Reading (10mg (10 mg/kg) group): 0.81 ± 0.25 | Insulin Level (Mean ±SEM), Final Reading (10mg (10 mg/kg) group): 0.65 ± 0.57 | Insulin Level (Mean ±SEM), Initial Reading (20mg (20 mg/kg) group): 0.76 ± 0.38 | Insulin Level (Mean ±SEM), Final Reading (20mg (20 mg/kg) group): 0.76 ± 0.81
